Measured values published in paper PMC7308271, “Discovery of a new class of orthosteric antagonists with nanomolar potency at extrasynaptic GABAA receptors” (Scientific Reports, 2020).
Where “and” joins values, the source holds several entries; their conditions need not be identical. Equal entries are not always repeated. Where two headings read alike, the source gives them in different places. Values belong to the compound of their own block, whether it stands above or below them.

How the values were obtained:
Type in all cases: cell-based
[1] = biological target: T1, human α4β2δ GABAΑ receptor (Homo sapiens, UniProt P47870+P48169); assay: FMP assay at α4β2δ GABAA receptors in HEK cells
T1 construct: expressed in transfected cells; host or cells: δ-HEK (HEK293 Flp-In stably expressing human δ), transiently transfected with α and β 1:1
Description: (§1) HEK293 cells were maintained in DMEM containing GlutaMAX-I, supplemented with 10% FBS and 1% penicillin-streptomycin and incubated at 37 °C and a humidity of 5% CO2. For expression of δ-containing GABAΑ receptors, a HEK293 Flp-In^ΤΜ cell line stably expressing the human GABAΑ δ-subunits (referred to as δ-HEK) was used and the γ-containing subtypes was expressed in a background HEK293 Flp-In^ΤΜ cell line stably expressing the G-protein coupled peptide receptor NPBWR2 (referred to as HEK background)[26], both positively selected for using 200 μg/mL hygromycin B. α1β2γ2 receptors were stably expressed in a HEK293 cell line maintained as above but with no selection (gift from Marianne L. Jensen, Neurosearch).
(§2) To express recombinant GABAΑ receptors human α1, α2, α3, α5, α6, β2, γ2 (pcDNA3.1/Zeo) and α4, β1 (pUNIV)[26] subunit cDNA were transiently transfected into either δ-HEK or HEK background cells. δ-HEK cells were transfected with α- and β-subunits in a 1:1 ration whereas HEK background cells were transfected with α-, β- and γ-subunits in a 1:1:2 ratio. Human BGT1 (pcDNA5/FRT)[43] was transiently transfected into the δ-HEK cell line. δ-HEK cells transfected for whole-cell patch-clamp recordings were co-transfected with green fluorescent protein (GFP) as well as α- and β-subunits in a 0.5:1:1 ratio (0.8 μg + 1.6 μg + 1.6 μg in a 6 cm dish) in order to identify transfected cells. The transfection was carried out using Polyfect as transfection reagent according to the manufactures protocol expect for using half the recommended volume of Polyfect.
(§3) The FMP assay was performed as previously described with a few modifications. Briefly, HEK cells were transfected as described[26] and 16–20 hours later plated (50,000 cells/well in DMEM medium) into clear-bottomed black 96-well plates coated with poly-D-lysine and the assay performed 20–28 hours later. The assay protocol including the FMP blue dye incorporation into membranes was exactly as described in Falk-Petersen et al.[26]. […] Data was obtained as changes in fluorescence units (∆RFU) by measuring emission at 560 nm caused by excitation at 530 nm. Unless otherwise mentioned in the text or figure legends experiments were performed in at least three independent experiments each using three technical replicates. Due to an observed edge effect for the FMP assay, outer wells were not used except for the screening.
Data obtained in the FMP assay are given as relative changes in fluorescence units (ΔRFU) by subtracting the average of the baseline fluorescence signal from the peak fluorescence signal after compound addition. All raw traces were inspected manually and peak signals resulting from compound/buffer addition together with signal artefacts were omitted from the analysis. […]

[2] = biological target: T2, human α2β2γ2 GABAΑ receptor (Homo sapiens, UniProt P47869+P47870); assay: FMP assay at α2β2γ2 GABAA receptors in HEK cells
T2 construct: expressed in transfected cells; host or cells: HEK background (HEK293 Flp-In stably expressing NPBWR2), transient α:β:γ 1:1:2
Description: as §1, §2
(§4) The FMP assay was performed as previously described with a few modifications. […] Data was obtained as changes in fluorescence units (∆RFU) by measuring emission at 560 nm caused by excitation at 530 nm. […]
(§5) Data obtained in the FMP assay are given as relative changes in fluorescence units (ΔRFU) by subtracting the average of the baseline fluorescence signal from the peak fluorescence signal after compound addition. […]

[3] = biological target: T3, human α5β2γ2 GABAΑ receptor (Homo sapiens, UniProt P31644+P47870); assay: FMP assay at α5β2γ2 GABAA receptors in HEK cells
T3 construct: expressed in transfected cells; host or cells: HEK background (HEK293 Flp-In stably expressing NPBWR2), transient α:β:γ 1:1:2
Description: as §1, §2, §4, §5

[4] = biological target: T4, human α4β1δ GABAΑ receptor (Homo sapiens, UniProt P18505+P48169); assay: FMP assay at α4β1δ GABAA receptors in HEK cells (screening, concentration-inhibition, Schild analysis); conditions: for IC50: vs GABA EC80 0.27–1.0 μM, mean
T4 construct: expressed in transfected cells; host or cells: δ-HEK (HEK293 Flp-In stably expressing human δ), transiently transfected with α4 and β1 1:1
Source text: We have previously established a FLIPR membrane potential (FMP) assay to study recombinant δ-containing GABAΑRs entailing a HEK293 Flp-In cell line stably expressing the human δ-subunit which is suitable for co-transfection with any desired α/β subunits. Initially, we validated the applicability of the FMP assay for efficient compound screening in 96-well microtiter plates using the human α4β1δ GABAΑR heterologously expressed in HEK cells. This receptor was chosen as we have previously shown this system to be reliable in expressing δ-containing receptors. To this end, we determined the Z′-factor, which is a statistical factor used to measure the suitability of an assay for high throughput screening.
Thus, we went on to further characterize 2027 by making a full concentration-inhibition curve.
as §1, §2
as §3, with “replicates.” for “replicates. Due to an observed edge effect for the FMP assay, outer wells were not used except for the screening.”
Data obtained in the FMP assay are given as relative changes in fluorescence units (ΔRFU) by subtracting the average of the baseline fluorescence signal from the peak fluorescence signal after compound addition. All raw traces were inspected manually and peak signals resulting from compound/buffer addition together with signal artefacts were omitted from the analysis.
The concentration-response curves obtained in the FMP assay for both agonists (determining EC50 values) and antagonists (determining IC50 values) were fitted using the four-parameter concentration-response model: Response=bottom+top−bottom/1+10^[(logEC50-A)⋅nH] EC/IC50 values describe the concentration resulting in the half-maximal response (halfway between top and bottom), and nΗ is the Hill coefficient.

[5] = biological target: T5, human α1β2γ2 GABAΑ receptor (Homo sapiens, UniProt P14867+P47870); assay: FMP assay at α1β2γ2 GABAA receptors in HEK cells
T5 construct: expressed in transfected cells; host or cells: HEK293 line stably expressing α1β2γ2 (gift from Marianne L. Jensen, Neurosearch)
Description: as §1, §2, §4, §5

[6] = biological target: T6, human α4β1γ2 GABAΑ receptor (Homo sapiens, UniProt P18505+P48169); assay: FMP assay at α4β1γ2 GABAA receptors in HEK cells
T6 construct: expressed in transfected cells; host or cells: HEK background (HEK293 Flp-In stably expressing NPBWR2), transient α:β:γ 1:1:2
Description: as §1, §2, §4, §5

[7] = biological target: T7, human α6β2δ GABAΑ receptor (Homo sapiens, UniProt P47870+Q16445); assay: FMP assay at α6β2δ GABAA receptors in HEK cells
T7 construct: expressed in transfected cells; host or cells: δ-HEK (HEK293 Flp-In stably expressing human δ), transiently transfected with α and β 1:1
Description: as §1, §2, §4, §5

[8] = read-out: pIC50 ± SEM (converted)

T7 sequence (Q16445 20-453): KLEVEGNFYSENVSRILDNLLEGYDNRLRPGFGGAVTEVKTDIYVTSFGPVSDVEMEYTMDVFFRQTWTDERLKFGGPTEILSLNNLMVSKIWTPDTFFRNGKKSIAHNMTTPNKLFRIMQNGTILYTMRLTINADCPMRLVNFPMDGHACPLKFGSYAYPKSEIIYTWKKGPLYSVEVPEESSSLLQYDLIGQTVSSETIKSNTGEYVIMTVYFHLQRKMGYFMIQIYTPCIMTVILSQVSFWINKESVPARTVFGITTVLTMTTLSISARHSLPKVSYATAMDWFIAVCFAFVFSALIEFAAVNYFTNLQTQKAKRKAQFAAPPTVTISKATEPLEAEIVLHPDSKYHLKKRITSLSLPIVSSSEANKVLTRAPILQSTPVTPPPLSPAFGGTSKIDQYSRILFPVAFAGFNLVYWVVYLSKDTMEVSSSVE
T7 sequence (P47870 25-512 limits assumed): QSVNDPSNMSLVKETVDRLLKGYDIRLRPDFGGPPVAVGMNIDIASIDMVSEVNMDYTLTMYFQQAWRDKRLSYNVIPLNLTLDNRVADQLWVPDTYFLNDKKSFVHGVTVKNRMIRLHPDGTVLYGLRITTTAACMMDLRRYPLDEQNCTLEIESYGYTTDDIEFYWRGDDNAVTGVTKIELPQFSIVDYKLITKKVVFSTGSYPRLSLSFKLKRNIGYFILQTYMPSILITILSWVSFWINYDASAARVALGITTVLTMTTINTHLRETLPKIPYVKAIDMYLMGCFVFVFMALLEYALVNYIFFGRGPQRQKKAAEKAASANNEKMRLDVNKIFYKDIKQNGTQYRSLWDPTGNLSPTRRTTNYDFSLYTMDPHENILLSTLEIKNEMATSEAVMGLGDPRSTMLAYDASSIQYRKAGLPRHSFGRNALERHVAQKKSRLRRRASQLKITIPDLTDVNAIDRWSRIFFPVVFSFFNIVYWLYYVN
T7 sequence (O14764 25-452 partner): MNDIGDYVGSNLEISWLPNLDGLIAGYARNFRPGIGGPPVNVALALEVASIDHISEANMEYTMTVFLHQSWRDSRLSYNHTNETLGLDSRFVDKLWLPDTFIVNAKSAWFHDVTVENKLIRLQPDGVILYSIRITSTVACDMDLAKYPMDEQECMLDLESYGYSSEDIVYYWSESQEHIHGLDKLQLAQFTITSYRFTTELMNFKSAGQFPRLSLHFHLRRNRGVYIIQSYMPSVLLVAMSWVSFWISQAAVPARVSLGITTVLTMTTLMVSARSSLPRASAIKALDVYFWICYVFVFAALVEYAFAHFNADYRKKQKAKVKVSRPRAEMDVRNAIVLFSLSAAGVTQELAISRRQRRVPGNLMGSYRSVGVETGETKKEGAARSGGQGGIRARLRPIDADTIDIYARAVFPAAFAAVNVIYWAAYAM
T4 sequence (P48169 36-554): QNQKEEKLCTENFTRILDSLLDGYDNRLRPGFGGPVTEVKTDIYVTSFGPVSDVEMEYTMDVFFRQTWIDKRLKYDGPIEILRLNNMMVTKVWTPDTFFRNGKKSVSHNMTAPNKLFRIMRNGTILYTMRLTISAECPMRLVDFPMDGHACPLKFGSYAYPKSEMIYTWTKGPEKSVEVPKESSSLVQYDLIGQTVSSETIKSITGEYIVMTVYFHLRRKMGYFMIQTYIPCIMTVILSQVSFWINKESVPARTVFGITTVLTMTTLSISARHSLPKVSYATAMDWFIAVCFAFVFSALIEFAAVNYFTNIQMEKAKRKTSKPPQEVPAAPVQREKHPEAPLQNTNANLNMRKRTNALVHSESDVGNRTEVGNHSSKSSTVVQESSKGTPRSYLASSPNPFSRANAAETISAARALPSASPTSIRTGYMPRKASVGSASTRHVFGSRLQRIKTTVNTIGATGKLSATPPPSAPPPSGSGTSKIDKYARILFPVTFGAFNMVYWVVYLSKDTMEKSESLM
T4 sequence (P18505 26-474): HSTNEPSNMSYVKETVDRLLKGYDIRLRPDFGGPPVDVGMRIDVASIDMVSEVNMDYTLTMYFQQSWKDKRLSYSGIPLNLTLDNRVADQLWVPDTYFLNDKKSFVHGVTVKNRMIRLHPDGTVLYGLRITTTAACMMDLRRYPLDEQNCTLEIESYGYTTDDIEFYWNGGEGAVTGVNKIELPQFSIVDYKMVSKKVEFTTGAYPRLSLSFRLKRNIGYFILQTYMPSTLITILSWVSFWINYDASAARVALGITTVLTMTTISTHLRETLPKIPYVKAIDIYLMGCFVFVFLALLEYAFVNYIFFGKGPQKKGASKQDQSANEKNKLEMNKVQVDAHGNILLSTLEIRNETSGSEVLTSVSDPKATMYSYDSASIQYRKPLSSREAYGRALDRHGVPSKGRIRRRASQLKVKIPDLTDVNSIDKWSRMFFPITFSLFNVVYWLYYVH
T4 sequence (O14764 25-452 partner): as the sequence (O14764 25-452 partner) above
T1 sequence (P48169 36-554): as the sequence (P48169 36-554) above
T1 sequence (P47870 25-512 limits assumed): as the sequence (P47870 25-512 limits assumed) above
T1 sequence (O14764 25-452 partner): as the sequence (O14764 25-452 partner) above
T6 sequence (P48169 36-554): as the sequence (P48169 36-554) above
T6 sequence (P18505 26-474): as the sequence (P18505 26-474) above
T6 sequence (P18507 40-475 partner): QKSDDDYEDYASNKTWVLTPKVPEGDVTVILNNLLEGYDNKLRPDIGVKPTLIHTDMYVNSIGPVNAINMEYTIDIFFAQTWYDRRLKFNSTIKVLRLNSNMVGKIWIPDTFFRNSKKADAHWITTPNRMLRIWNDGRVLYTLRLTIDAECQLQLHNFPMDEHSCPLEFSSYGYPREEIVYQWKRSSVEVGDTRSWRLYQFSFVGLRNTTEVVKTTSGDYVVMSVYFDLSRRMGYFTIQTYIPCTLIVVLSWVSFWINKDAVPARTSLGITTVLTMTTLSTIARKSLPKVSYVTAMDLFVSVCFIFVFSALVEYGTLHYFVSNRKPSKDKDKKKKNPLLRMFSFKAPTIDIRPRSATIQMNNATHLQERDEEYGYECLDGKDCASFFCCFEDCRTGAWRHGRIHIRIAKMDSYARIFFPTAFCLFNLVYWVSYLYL
T3 sequence (P31644 32-462): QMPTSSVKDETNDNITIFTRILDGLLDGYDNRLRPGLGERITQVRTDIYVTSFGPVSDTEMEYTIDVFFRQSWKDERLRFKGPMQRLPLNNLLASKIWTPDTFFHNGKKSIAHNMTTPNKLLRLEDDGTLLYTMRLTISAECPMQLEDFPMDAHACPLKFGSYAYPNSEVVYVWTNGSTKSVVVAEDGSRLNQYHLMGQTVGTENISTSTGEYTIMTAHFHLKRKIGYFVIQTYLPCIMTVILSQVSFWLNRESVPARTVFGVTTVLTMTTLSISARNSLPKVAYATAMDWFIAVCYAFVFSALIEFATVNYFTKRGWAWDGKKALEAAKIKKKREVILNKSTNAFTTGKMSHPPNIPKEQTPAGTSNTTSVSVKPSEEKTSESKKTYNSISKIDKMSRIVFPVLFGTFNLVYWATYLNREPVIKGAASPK
T3 sequence (P47870 25-512 limits assumed): as the sequence (P47870 25-512 limits assumed) above
T3 sequence (P18507 40-475 partner): as the sequence (P18507 40-475 partner) above
T5 sequence (P14867 28-456): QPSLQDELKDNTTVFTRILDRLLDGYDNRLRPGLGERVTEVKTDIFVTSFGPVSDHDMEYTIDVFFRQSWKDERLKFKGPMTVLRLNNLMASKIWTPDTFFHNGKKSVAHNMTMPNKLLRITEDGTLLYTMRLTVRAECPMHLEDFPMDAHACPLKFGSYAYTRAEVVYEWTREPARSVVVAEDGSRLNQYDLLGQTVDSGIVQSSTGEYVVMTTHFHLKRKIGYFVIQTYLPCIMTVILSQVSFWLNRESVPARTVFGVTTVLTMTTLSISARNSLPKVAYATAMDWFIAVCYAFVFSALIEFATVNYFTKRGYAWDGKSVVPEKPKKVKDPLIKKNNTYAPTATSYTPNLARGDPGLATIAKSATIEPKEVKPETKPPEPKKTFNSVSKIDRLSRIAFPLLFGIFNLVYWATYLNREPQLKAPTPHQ
T5 sequence (P47870 25-512 limits assumed): as the sequence (P47870 25-512 limits assumed) above
T5 sequence (P18507 40-475 partner): as the sequence (P18507 40-475 partner) above
T2 sequence (P47869 29-451): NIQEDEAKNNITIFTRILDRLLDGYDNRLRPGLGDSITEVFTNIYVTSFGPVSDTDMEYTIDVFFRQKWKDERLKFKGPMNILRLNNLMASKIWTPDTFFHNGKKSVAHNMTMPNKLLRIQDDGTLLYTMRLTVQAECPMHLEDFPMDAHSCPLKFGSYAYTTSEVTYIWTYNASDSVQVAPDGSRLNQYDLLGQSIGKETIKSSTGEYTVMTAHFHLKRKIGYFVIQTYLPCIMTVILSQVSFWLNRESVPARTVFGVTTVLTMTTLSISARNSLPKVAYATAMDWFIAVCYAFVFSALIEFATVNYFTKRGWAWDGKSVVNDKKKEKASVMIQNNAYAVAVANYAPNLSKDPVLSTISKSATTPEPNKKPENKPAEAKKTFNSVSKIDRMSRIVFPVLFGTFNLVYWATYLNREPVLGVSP
T2 sequence (P47870 25-512 limits assumed): as the sequence (P47870 25-512 limits assumed) above
T2 sequence (P18507 40-475 partner): as the sequence (P18507 40-475 partner) above

increased potency at α4β2δ compared to α1β2γ2 ([1]; IC50 68 nM vs 790 nM): 12 times | IC50 ([1]; read-out: IC50): 0.068 µM | IC50 [2, 8]: 0.324 µM | IC50 [3]: 0.051 µM | Kd ([4]; Gaddum/Schild analysis, read-out: KΒ from Schild analysis): 0.019 µM | potency of 018 relative to 2027 ([4]; IC50 ratio): approximately 10 times | IC50 [4]: 0.09 µM and 0.088 µM | IC50 [5]: 0.79 µM | IC50 [6]: 0.0372 µM | IC50 [7, 8]: 0.331 µM
Structure (SMILES): O=C(Nc1cccc(C(=O)N2CCC3(CCNCC3)CC2)c1)c1cccs1 [compound 018, N-(3-(3,9-diazaspiro[5.5]undecane-3-carbonyl)phenyl)thiophene-2-carboxamide]

IC50 [1, 8]: 0.363 µM | IC50 ([2]; read-out: IC50): 2.96 µM | IC50 [3]: 0.59 µM | hit validation, antagonistic effect ([4]; 100, 50 and 10 μM in triplicates): showed antagonistic effect | inhibition at 10 µM ([4]; HEK293, read-out: inhibition of the GABA EC80 signal, primary screening, 10 μM, singlicates): > 50% | IC50 [4]: 1.03 µM | IC50 [5]: 4.96 µM | IC50 [6]: 0.166 µM | IC50 ([7]; read-out: IC50): 4.13 µM
Structure (SMILES): CC(=O)Nc1cccc(C(=O)N2CCC3(CCNCC3)CC2)c1 [compound 2027, N-(3-(3,9-diazaspiro[5.5]undecane-3-carbonyl)phenyl)acetamide]

Structure (SMILES): NCCCC(=O)O [GABA]
GABA EC80 ([1]; α4β2δ, calculated from GABA potencies): 0.80 to 1.0 µM | GABA EC80 ([2]; α2β2γ2, calculated from GABA potencies): 10 µM | GABA EC80 ([3]; α5β2γ2, calculated from GABA potencies): 3.0 µM | GABA EC80 ([4]; calculated from GABA potencies): 0.27 to 1.0 µM | GABA EC80 ([5]; α1β2γ2, calculated from GABA potencies): 8.0 µM | GABA EC80 ([6]; α4β1γ2, calculated from GABA potencies): 4.0 to 8.0 µM | GABA EC80 ([7]; α6β2δ, calculated from GABA potencies): 3.0 µM
